Source: patent US9597318B2, “2-oxothiazole compounds and method of using same for chronic inflammatory disorders” (Avexxin AS, priority 2009, dated 2017)
Read-outs that look alike come from different tables or passages of the source.

Tests used:
[1] = system: SW982 cells; assay: AA release assay in SW982 cells, IL-1B stimulation; assay type: cell-based; settings: Homo sapiens
Protocol: (§1) The Cell Culture SW982 model cell line at a confluent or spheroid state (Wada Y, 2005) was used since gene expression and generation of proinflammatory cytokines resemble RA-derived synovial fibroblast-like cells.
[…] […] IC50 is evaluated from dose-response inhibitions curves.

[2] = target: group IVa PLA2 (cPLA2) (Homo sapiens (Human), UniProt P47712); assay: In vitro cPLA2 enzyme activity assay; assay type: biochemical
Protocol: Some of the compounds above were tested using an in vitro cPLA2 enzyme activity assay.
Assay for cPLA2 activity was performed by the use of sonicated vesicles of 1-palmitoyl-2-arachidonoyl-sn-glycerol-3-phosphorylcholine (100 μM) containing 100,000 cpm of 1-palmitoyl-2-[1 14C]arachidonoylsn-glycerol-3-phosphorylcholine in 100 mM Hepes, pH 7.5, 80 μM Ca2, 2 mM dithiothreitol, and 0.1 mg/ml BSA as described. Following a […] incubation at 37° C., the reaction was terminated (derived from Wijkander et al). The lower phase was separated by thin layer chromatography, and the spot corresponding to free [1-14C]arachidonic acid was visualized by digital imaging and quantified with a PhosphorImager (Fuji Instruments). The source of cPLA2 enzyme was recombinant overexpression of the human gene for group IVa PLA2 in baculovirus insect cell expression system, as described in Abdullah et al. • Wijkander, J., and Sundler, R. (1991) Eur. J. Biochem. 202, 873-880 • Abdullah, K., et al. (1995) Human cytosolic phospholipase A2 expressed in insect cells is extensively phosphorylated on Ser-505. Biochim Biophys Acta. 1995 May 11; 1244(1):157-64.

[3] = system: PGE2; assay: PGE2-assay (EIA kit detection); assay type: cell-based
Protocol: as §1
Samples and controls were slowly thawed and diluted (between 1:1 and 1:2500) in the standard diluent. The maximal dilution was 1:10 for one step. That is why several intermediate dilutions were prepared. In the beginning all values were determined from duplicates. After having minimized technical errors, samples were only analyzed as individuals. All further steps, except for some minor corrections, were performed according to the manufacturer's recommendations as can be found in the manual of the EIA kit. In order to optimize the results, the incubation time of the alkaline phosphatase substrate was prolonged by 15 minutes. During the incubation, the plates were kept in the dark. An example of the arrangements of the samples and controls is illustrated in the appendix. The read-out was carried out with a Multiscan plate reader (Ascent Labsystems) at wavelengths of 414 and 595 nm after 10 seconds shaking at 120 rpm. The corresponding software to obtain the data was the Ascent software for Multiscan, Version 2.4.1.
Data were processed using Microsoft Office Excel 2003 and SigmaPlot 10.0.

[4] = 1 h preincubation, IL-1B stimulation, time not given
[5] = read-out: cPLA2 in vitro assay IC50
[6] = recombinant human group IVa PLA2, vesicle assay, 37° C., read-out: Enzyme Assay IC 50

group IVa PLA2 (cPLA2), sequence (P47712 whole entry): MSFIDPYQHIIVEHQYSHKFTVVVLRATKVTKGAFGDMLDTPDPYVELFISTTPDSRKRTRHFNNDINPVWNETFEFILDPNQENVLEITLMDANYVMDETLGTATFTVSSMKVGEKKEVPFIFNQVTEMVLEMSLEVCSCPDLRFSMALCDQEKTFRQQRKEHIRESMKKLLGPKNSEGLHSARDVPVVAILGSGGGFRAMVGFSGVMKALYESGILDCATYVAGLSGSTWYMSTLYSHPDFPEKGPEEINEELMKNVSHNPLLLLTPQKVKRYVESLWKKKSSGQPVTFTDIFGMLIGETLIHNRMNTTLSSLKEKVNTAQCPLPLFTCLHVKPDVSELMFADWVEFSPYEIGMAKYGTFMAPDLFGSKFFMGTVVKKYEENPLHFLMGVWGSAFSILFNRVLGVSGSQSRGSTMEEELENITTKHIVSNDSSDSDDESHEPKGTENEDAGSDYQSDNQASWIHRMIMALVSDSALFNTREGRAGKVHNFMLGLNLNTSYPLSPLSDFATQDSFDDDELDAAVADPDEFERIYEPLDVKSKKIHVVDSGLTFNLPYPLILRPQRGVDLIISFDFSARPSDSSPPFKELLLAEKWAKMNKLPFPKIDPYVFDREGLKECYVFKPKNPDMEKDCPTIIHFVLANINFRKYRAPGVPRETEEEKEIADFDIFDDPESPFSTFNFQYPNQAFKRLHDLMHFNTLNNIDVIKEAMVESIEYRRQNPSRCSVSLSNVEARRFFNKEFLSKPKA

| SMILES | IC50 [1, 4] | IC50 [2, 5] | IC50 [2, 6] | inhibition at 10 µM [3] | inhibition at 30 µM [3] | also measured |
| --- | --- | --- | --- | --- | --- | --- |
| CCc1ccc(OCC(=O)c2nccs2)cc1 [GK185] | 2.8 µM | 2 µM | – | – | – | – |
| CCCCCCCCc1ccc(OCCCC(=O)c2nccs2)cc1 [GK154, 4-(4-Octylphenoxy)-1-(thiazol-2-yl)butan-1-one] | – | – | 3.65 µM | – | – | – |
| CCCCCCOc1ccc(CCC(=O)c2nccs2)cc1 [GK150, 3-(4-(Hexyloxy)phenyl)-1-(thiazol-2-yl)propan-1-one] | 5.8 µM | – | – | – | – | – |
| CCOC(=O)c1csc(C(=O)CCCCc2ccccc2)n1 [GK152, Ethyl 2-(5-phenylpentanoyl)thiazole-4-carboxylate] | – | > 5 µM | – | 30% | 31% | inhibition at 0.1 µM ([3]; 0.1 uM): 41%; inhibition at 3 µM [3]: 38%; IC50 ([1]; (2 h)): 7.4 µM; IC50 ([1]; (4 h)): > 25 µM |
| CCCCCCOc1ccc(CCCC(F)C(=O)c2nccs2)cc1 (stereo not drawn) [GK156, 2-Fluoro-5-(4-(hexyloxy)phenyl)-1-(thiazol-2-yl)pentan-1-one] | – | – | 3.7 µM | – | – | – |
| O=C(CCCCc1ccccc1)c1nccs1 [GK147, 5-Phenyl-1-(thiazol-2-yl)pentan-1-one] | – | – | 3.05 µM | – | – | – |
| CCC(=O)c1nc(C(=O)O)cs1 [GK160] | 4.9 µM | 7.2 µM | – | 12% | 30% | – |
| O=C(CCCCc1ccccc1)c1nc2ccccc2s1 [GK159] | – | > 5 µM | – | 23% | 10% | inhibition at 0.3 µM ([3]; 0.3 uM): 76%; inhibition at 3 µM [3]: 18%; IC50 ([1]; (2 h)): < 2 µM; IC50 ([1]; (4 h)): ~25 µM |
| O=C(CCCCc1ccc2ccccc2c1)c1nc2ccccc2s1 [GK181] | 1.4 µM | – | – | 16.3% | 22.5% | – |
